# Measured values reported in paper PMC12461739, “Multi-targeted azacoumarin–cyanocinnamate hybrids induce G2/M arrest and apoptosis via tubulin, and COX-2/VEGFR modulation: insights from in vitro mechanistic basis and in vivo validation” (RSC Medicinal Chemistry, 2025).
# pIC50: −log10 of the molar value.
# What was measured:
# [1] = Serum liver and kidney function markers (ALT, AST, creatinine, urea)
# Method: Blood samples were collected under light ether anesthesia via the retro-orbital venous plexus and centrifuged at 3000 rpm for 10 minutes. The resulting serum was separated and stored at −20 °C for biochemical analysis.
# Serum alanine aminotransferase (ALT) and aspartate aminotransferase (AST) levels were measured as indicators of liver function using commercially available assay kits (BioVenic, NY, USA, (AST) Cat. No.: IVEK3681, (ALT) Cat. No.: IVEK3446), in accordance with the manufacturer's instructions. In the ALT assay, the enzyme catalyzes the conversion of alanine to pyruvate, which is then reduced to lactate by lactate dehydrogenase, resulting in the oxidation of NADH to NAD^+. This reaction causes a decrease in absorbance at 340 nm, which is proportional to ALT activity. Similarly, the AST assay is based on the transamination of aspartate to oxaloacetate, which then reacts with NADH in the presence of malate dehydrogenase, leading to a decrease in NADH absorbance at 340 nm. For each assay, 10 μL of serum was added to the respective substrate buffer and incubated at 37 °C for 30 minutes. The change in absorbance was recorded using a microplate reader at 340 nm. Enzymatic activities were calculated and expressed in units per liter (U L^−1). All measurements were performed in triplicate, and results are presented as mean ± SD.[98,99]
# Serum creatinine and urea levels were assessed as indicators of renal function using colorimetric assay kits from BioAssay Systems (DICT-500, USA), according to the manufacturers' protocols. Creatinine concentration was determined based on a colorimetric enzymatic reaction. In this assay, creatinine is enzymatically converted to creatine and then to sarcosine, which is oxidized to produce hydrogen peroxide. The resulting hydrogen peroxide reacts with a chromogenic substrate in the presence of peroxidase to generate a colored product, the intensity of which is proportional to the creatinine concentration. Briefly, 10 μL of serum was mixed with 200 μL of working reagent, incubated at 25 °C for 5 minutes, and the absorbance was recorded at 510 nm using a microplate reader. Values were quantified against a standard curve and expressed in mg dL^−1. On the other hand, urea levels were measured based on an enzymatic reaction that produces a chromophore detectable at 340 nm. Specifically, 5 μL of serum was added to 200 μL of the assay reagent and incubated at 37 °C for 10 minutes. Absorbance was measured at 340 nm, and urea concentration was calculated using a standard curve and expressed as mg dL^−1.
# Bcl-2 = experiment: qRT-PCR gene expression, Bcl-2; format: cell-based, human; details: MCF-7, 7.653 μM, 24 h
# Method: (§1) Untreated cells served as negative controls. RNA concentration and purity were verified spectrophotometrically prior to cDNA synthesis. Complementary DNA (cDNA) was synthesized from purified RNA using the RT^2 First Strand Kit (Qiagen, Valencia, CA, USA) following the supplied protocol. Quantitative real-time PCR (qRT-PCR) was performed on a Corbett Rotor-Gene 6000 system (Qiagen, USA) using the RT^2 SYBR® Green ROX™ FAST Master Mix (Qiagen). Each 25 μL reaction contained 12.5 μL of master mix, 1 μL of gene-specific primers (RT^2 qPCR Primer Assays, Qiagen), 1 μL of cDNA template, and 10.5 μL of RNase-free water. Gene-specific primers were selected using the PrimerBank database for BAX, BCL2, and TP53, along with GAPDH as the endogenous control (Table S3). Thermal cycling conditions were set as follows: initial enzyme activation at 95 °C for 10 minutes, followed by 40 cycles of denaturation at 95 °C for 15 seconds, and annealing at 60 °C for 30 seconds. Amplification specificity was confirmed by melting curve analysis. Gene expression levels were normalized to GAPDH mRNA as the internal reference, and relative quantification was performed using the ΔΔCt method. […] Statistical analysis was performed using GraphPad Prism software, with p < 0.05 considered statistically significant.[79]
# [2] = system: Ehrlich ascites carcinoma (EAC) cells; experiment: EAC model: viable EAC cell count and ascitic tumor volume; details: for total viable EAC cell count: 10 days
# Method: To evaluate tumor burden in the experimental groups, ascitic fluid was collected from the peritoneal cavity using a sterile, graduated syringe. The volume of ascitic fluid was recorded for each animal. The collected fluid was then diluted with heparinized saline for viable cell counting. Cell viability and density were determined using the trypan blue exclusion method. A 0.4% (w/v) trypan blue solution was prepared by dissolving 0.4 g of dye in 100 mL of sterile distilled water and filtering it through a 0.22 μm membrane filter. Prior to counting, 10 μL of the ascitic cell suspension was mixed with an equal volume of trypan blue and incubated at room temperature for 2 minutes. Cells were loaded onto a hemocytometer (Thoma type, Germany) and examined under a light microscope at 40× magnification. Non-viable cells stained blue, whereas viable cells remained unstained. All measurements were performed in triplicate, and the results are expressed as mean ± SD.[93]
# On day 1, all groups were injected i.p. with 2.5 × 10^6 viable EAC cells in 200 μL of sterile saline. Group 1 (EAC control) received EAC cells only and no further treatment. […] The compound was administered i.p. every other day (i.e., on days 2, 4, 6, 8, and 10), for a total of five doses over a 10 day treatment period. At the end of the experiment (day 11), ascitic fluid was collected from the peritoneal cavity of each animal. The number and viability of EAC cells were assessed using the trypan blue exclusion assay. Each experiment was performed in triplicate and independently replicated on at least three separate occasions. The results were presented as mean ± SD. Statistical comparisons between groups were conducted using GraphPad Prism, with p < 0.05 considered significant.[95]
# On day 11, following the final treatment, ascitic fluid was collected from the peritoneal cavity using heparinized syringes for EAC cell viability and count analysis.
# [3] = Acute toxicity and lethal dose determination; format: in vivo, Swiss albino mice; details: mice, i.p., 48 hour observation
# Method: In the first phase, animals were injected with low doses (1, 1.5, 2, 2.5, 3, 3.5, 4, 6, 8, and 10 mg kg^−1) and observed for 24 hours. Since no mortality was observed, a second set of animals was treated with higher doses (15, 25, 50, 75, 100, and 200 mg kg^−1), with continuous monitoring for 48 hours post-injection. Control animals received sterile saline solution only. All mice were carefully observed for signs of toxicity, behavioral changes (e.g., grooming, feeding, and locomotion), and mortality. The maximum tolerated dose (LD0) was defined as the highest dose at which no mortality or significant toxic symptoms were observed, while the lethal dose (LD100) was identified as the dose at which all animals succumbed. These values were used to establish safe dosing limits for subsequent in vivo pharmacological and biochemical experiments.
# p53 = experiment: qRT-PCR gene expression, p53; format: cell-based, human; details: MCF-7, 7.653 μM, 24 h
# Method: as §1
# [4] = Kidney histopathology (H&E); details: compound 7 + EAC
# Excerpt: (§2) Additionally, liver and kidney tissues were excised from each animal for further evaluation. […] The second portion was fixed in 10% neutral buffered formalin for histopathological examination to assess tissue morphology and damage.[96,97]
# (§3) Liver and kidney tissues were collected from all experimental groups at the end of the study and immediately fixed in 10% neutral buffered formalin. After fixation, the samples were dehydrated, embedded in paraffin, and sectioned at a thickness of 5 μm using a rotary microtome. […] Histopathological examination of renal tissue focused on identifying acute tubular injury (ATI), characterized by tubular epithelial cell flattening, necrosis, apical vacuolization, and loss of the brush border. These features were assessed using a semi-quantitative scoring system.[110] Hepatic tissue sections were evaluated for the severity of hepatocellular injury using a modified Brunt grading system, which includes assessment of hepatocyte ballooning, necrosis, inflammation, and other degenerative changes.
# [5] = Liver histopathology (H&E)
# Excerpt: as §2, §3
# MCF-7 cells = experiment: Cell cycle analysis (PI flow cytometry); format: cell-based, human; details: MCF-7, 7.653 μM (IC50), 24 h
# Method: Cell cycle progression was examined using a propidium iodide (PI)-based staining protocol, adapted from standard manufacturer instructions and previously described methods. MCF-7 cells were seeded at a density of 2 × 10^5 cells per well in DMEM and incubated overnight under standard conditions (37 °C, 5% CO2). […] A DMSO-treated group served as the vehicle control. After treatment, cells were collected, washed twice with cold phosphate-buffered saline (PBS), and centrifuged at 2000 rpm for 5 minutes. The pellets were fixed in pre-chilled 70% ethanol and stored at −20 °C for 2 hours. After fixation, cells were washed again with PBS, centrifuged, and resuspended in PI/RNase staining solution. Samples were incubated for 30 minutes at 37 °C in the dark to allow for RNA degradation and proper DNA staining. Flow cytometric analysis was conducted using a BD FACSCalibur™ system (BD Biosciences, USA). PI fluorescence was detected using a 488 nm excitation laser and collected through the FL2 channel (585 nm bandpass filter). Cell cycle phase distribution (G0/G1, S, and G2/M) was analyzed using dedicated software.
# [6] = Hepatic oxidative stress markers (GSH, CAT, SOD, MDA)
# Method: All animals were maintained under conventional laboratory conditions, including a controlled temperature of 22 ± 2 °C and a 12 hour light/dark photoperiod, with continuous access to standard pellet chow and water. On day 11, following the final treatment, ascitic fluid was collected from the peritoneal cavity using heparinized syringes for EAC cell viability and count analysis. Blood samples were collected under light ether anesthesia via the retro-orbital venous plexus and centrifuged at 3000 rpm for 10 minutes. The resulting serum was separated and stored at −20 °C for biochemical analysis. Additionally, liver and kidney tissues were excised from each animal for further evaluation. Each organ was divided into two parts: one portion was rinsed with ice-cold phosphate-buffered saline (PBS, pH 7.4) and stored at −20 °C for preparation of tissue homogenates used in biochemical assays. The second portion was fixed in 10% neutral buffered formalin for histopathological examination to assess tissue morphology and damage.[96,97]
# Liver tissues were homogenized in an appropriate lysis buffer and centrifuged to obtain the supernatant. Samples were loaded into ELISA plates pre-coated with catalase-specific antibodies and incubated at 37 °C. After washing steps, a biotinylated detection antibody and horseradish peroxidase (HRP)-conjugated secondary antibody were sequentially added. The reaction was developed using a tetramethylbenzidine (TMB) substrate and stopped with sulfuric acid. Absorbance was measured at 450 nm using a microplate reader, and results were expressed as units per gram of tissue (U g^−1 tissue). All samples were run in triplicate, and data were reported as mean ± SD.
# The assay employed a double-antibody sandwich ELISA technique, where wells are pre-coated with MDA-specific monoclonal antibodies. Liver tissue homogenate samples were added to the wells and incubated to allow specific antigen–antibody binding. After washing, a biotin-labeled polyclonal detection antibody was added, followed by an avidin–HRP conjugate. The enzymatic reaction was developed using a TMB substrate, yielding a colorimetric change proportional to the MDA concentration. The reaction was stopped with acid, and absorbance was measured at 450 nm using a microplate reader. Results were expressed as nanomole per gram of tissue (nmol g^−1 tissue). All measurements were performed in triplicate, and results are presented as mean ± SD.
# The assay employs a sandwich ELISA technique in which GSH in the samples binds to monoclonal antibodies pre-coated on microplate wells. Following this, an HRP-conjugated detection antibody was added, and the plate was incubated at 37 °C for 1 hour. After several washing steps to remove unbound reagents, a TMB substrate solution was added, allowing the enzymatic colorimetric reaction to develop. The reaction was stopped with an acidic solution, and absorbance was measured at 450 nm using a microplate reader. The resulting color intensity was directly proportional to the GSH concentration in the sample, and results were expressed as picogram per gram of tissue (pg g^−1 tissue). All samples were assayed in triplicate, and results are reported as mean ± SD.
# The assay employed a sandwich ELISA format, in which SOD present in the tissue homogenates binds to a specific monoclonal antibody pre-coated on microplate wells. After sample incubation at 37 °C for 60 minutes, an HRP-conjugated secondary antibody was added. Following thorough washing, the enzymatic reaction was initiated with a TMB substrate and stopped with an acidic solution, resulting in a measurable color change. Absorbance was recorded at 450 nm using a microplate reader, and results were expressed as units per gram of tissue (U g^−1 tissue). All samples were run in triplicate, and data were reported as mean ± SD.
# [7] = FRAP (ferric reducing antioxidant power) assay; details: 37 °C, 60 min
# Method: The resulting Fe^2+ forms a colored complex with the FRAP chromogenic probe, which can be quantitatively measured. The reaction mixture was prepared by combining FRAP assay buffer, FRAP probe, and FeCl3 solution as per the manufacturer's protocol. […] Absorbance was measured at 594 nm using a microplate reader after incubation at 37 °C for 60 minutes. Antioxidant activity was determined by comparing the absorbance of the samples to a standard curve generated using known concentrations of the ferrous standard provided in the kit.
smiles,measurement,setting,value
"CCOC(=O)/C(C#N)=C/c1ccc(Oc2c(C)c3cc(Br)c(O)c(Br)c3[nH]c2=O)cc1 [Compound 7, ethyl (E)-2-cyano-3-(4-((6,8-dibromo-7-hydroxy-4-methyl-2-oxo-1,2-dihydroquinolin-3-yl)oxy)phenyl)acrylate]",serum creatinine,"[1]; EAC + compound 7 (10 mg kg^−1 i.p.), EAC control 1.7 ± 0.04",0.6 ± 0.02 mg/dL
same,serum urea,"[1]; EAC + compound 7 (10 mg kg^−1 i.p.), EAC control 94 ± 1.78",44.83 ± 0.7 mg/dL
same,serum ALT,"[1]; EAC + compound 7 (10 mg kg^−1 i.p.), EAC control 140.66 ± 3.45",49.83 ± 1.16 U L^−1
same,serum AST,"[1]; EAC + compound 7 (10 mg kg^−1 i.p.), EAC control 168.33 ± 3.7",57.5 ± 1.56 U L^−1
same,serum ALT,"[1]; compound 7-control group, no EAC (10 mg kg^−1 i.p.), untreated 27.16 ± 0.94",22.83 ± 0.6 U L^−1
same,serum creatinine,"[1]; compound 7-control group, no EAC, untreated 0.5 ± 0.02",0.5 ± 0.03 mg/dL
same,serum urea,"[1]; compound 7-control group, no EAC, untreated 24.16 ± 1.07",21.83 ± 0.6 mg/dL
same,serum AST,"[1]; compound 7-control group, no EAC, untreated 41.66 ± 1.3",37.83 ± 0.94 U L^−1
same,Bcl-2 expression relative to untreated control,Bcl-2,0.312 fold
same,reduction in viable EAC cells,"[2]; 2.5 mg kg^−1, vs EAC control",53.27%
same,total viable EAC cell count,"[2]; 2.5 mg kg^−1 i.p. every two days, EAC control 199.33 ± 4.15",93.15 ± 7.19 × 10^6 cells
same,reduction in viable EAC cells,"[2]; 5 mg kg^−1, vs EAC control",65.41%
same,total viable EAC cell count,[2]; 5 mg kg^−1 i.p. every two days,68.95 ± 2.00 × 10^6 cells
same,reduction in viable EAC cells,"[2]; 7.5 mg kg^−1, vs EAC control",72.36%
same,total viable EAC cell count,[2]; 7.5 mg kg^−1 i.p. every two days,55.10 ± 2.15 × 10^6 cells
same,reduction in viable EAC cells,"[2]; 10 mg kg^−1, vs EAC control",85.92%
same,reduction of ascitic tumor volume,"[2]; 10 mg kg^−1, vs untreated EAC group",45.25%
same,average ascitic tumor volume,"[2]; 10 mg kg^−1, untreated EAC group 5.68 ± 0.15 mL",3.11 ± 0.45 mL
same,total viable EAC cell count,[2]; 10 mg kg^−1 i.p. every two days,28.06 ± 1.69 × 10^6 cells
same,reduction in viable EAC cells,"[2]; 15 mg kg^−1, vs EAC control",85.96%
same,total viable EAC cell count,[2]; 15 mg kg^−1 i.p. every two days,27.98 ± 0.39 × 10^6 cells
same,MTD at 48 h,"[3]; Swiss albino, mouse, in vivo, ip, read-out: maximum tolerated dose (LD0)",100 mg/kg
same,approximate lethal dose (LD100),[3],~200 mg/kg
same,p53 expression relative to untreated control,p53,3.03 fold
same,nephropathy class,[4],class II
same,glomerular involvement,[4]; EAC group approximately 25%,15%
same,hepatocyte hydropic degeneration,"[5]; EAC + compound 7, EAC group approximately 45%",around 15%
same,portal inflammation grade,"[5]; EAC + compound 7, EAC group grade 3",2
same,liver pathology score,"[5]; EAC + compound 7, EAC group score 7, untreated 0",3
same,lobular inflammation grade,"[5]; compound 7 only, no EAC",1
same,portal inflammation grade,"[5]; compound 7 only, no EAC",2
same,liver pathology score,"[5]; compound 7 only, no EAC, untreated 0",4
same,cells in G2/M phase,MCF-7 cells; control 7.57%,36.21%
same,S-phase cells,MCF-7 cells; control 21.08%,15.75%
same,hepatic GSH,"[6]; EAC + compound 7 (10 mg kg^−1 i.p.), EAC control 12.50 ± 0.55",34.76 ± 1.71 pg g^−1 tissue
same,hepatic SOD,"[6]; EAC + compound 7, EAC control 9.85 ± 0.53",27.04 ± 0.70 U g^−1 tissue
same,hepatic CAT,"[6]; EAC + compound 7, EAC control 11.71 ±1.42",23.12 ± 1.09 U g^−1 tissue
same,hepatic MDA,"[6]; EAC + compound 7, EAC control 53.57 ± 9.6",17.04 ± 0.64 nmol g^−1 tissue
same,hepatic MDA,"[6]; compound 7 control group, no EAC",10.77 ± 0.70 nmol g^−1 tissue
same,hepatic GSH,"[6]; compound 7 control group, no EAC, untreated 61.4 ± 2.99",72.73 ± 1.37 pg g^−1 tissue
same,hepatic CAT,"[6]; compound 7 control group, no EAC, untreated 65.23 ± 1.97",60.88 ± 2.66 U g^−1 tissue
same,hepatic SOD,"[6]; compound 7 control group, no EAC, untreated 77.56 ± 4.02",77.05 ± 1.84 U g^−1 tissue
same,pIC50,[7],3.84
